Results as given in ChEMBL document CHEMBL1201862, “PubChem BioAssay data set” (2004).
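Method: 48-hour compound exposure of cells in 96-well plates, five concentrations, linear interpolation of endpoints. The concentration for 50% growth inhibition is given as GI50.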 The source made the active and inactive calls. Rule as the data show it: active = GI50 up to about 1.1 µM and inactive = higher.

How the values were obtained:
Assay in all cases: inhibition of tumour cell growth, NCI panel, 48 h
NCI-H23 = system: NCI-H23
OVCAR-4 = system: OVCAR-4
UO-31 = system: UO-31
T47D = system: T47D
ACHN = system: ACHN
SK-MEL-28 = system: SK-MEL-28
SW-620 = system: SW-620
786-0 = system: 786-0
NCI-H522 = system: NCI-H522
K562 = system: K562
HL-60 = system: HL-60
MDA-MB-435 = system: MDA-MB-435
M14 = system: M14
SK-MEL-2 = system: SK-MEL-2
MDA-MB-231 = system: MDA-MB-231
A549 = system: A549
COLO 205 = system: COLO 205
SK-OV-3 = system: SK-OV-3

Structure (SMILES)	GI50 (NCI-H23)	GI50 (OVCAR-4)	GI50 (UO-31)	GI50 (T47D)	GI50 (ACHN)	GI50 (SK-MEL-28)	GI50 (SW-620)	GI50 (786-0)	GI50 (NCI-H522)	GI50 (K562)	GI50 (HL-60)	GI50 (MDA-MB-435)	GI50 (M14)	GI50 (SK-MEL-2)	GI50 (MDA-MB-231)	GI50 (A549)	GI50 (COLO 205)	GI50 (SK-OV-3)
Clc1ccc(OCC2NC3C=CC32)cn1 (centres undefined)	> 100 µM (inactive)	> 100 µM (inactive)	44.7 µM (inactive)	> 100 µM (inactive)	> 100 µM (inactive)	> 100 µM (inactive)	> 100 µM (inactive)	> 100 µM (inactive)	> 100 µM (inactive)	59.3 µM (inactive)	> 100 µM (inactive)	> 100 µM (inactive)	> 100 µM (inactive)	> 100 µM (inactive)	> 100 µM (inactive)	> 100 µM (inactive)	> 100 µM (inactive)	> 100 µM (inactive)
COC(=O)C1=C(O)C(C(=O)OC)[C@]2(O)[C@H](C(=O)OC)[C@H]1C[C@@H](c1cccc(OC)c1)[C@H]2C(=O)OC (some centres undefined)	30.4 µM (inactive)	29 µM (inactive)	13.9 µM (inactive)	30.5 µM (inactive)	20.4 µM (inactive)	37.6 µM (inactive)	21.5 µM (inactive)	20.7 µM (inactive)	6.1 µM (inactive)	28.4 µM (inactive)	0.207 µM (active)	17.5 µM (inactive)	29.7 µM (inactive)	17.7 µM (inactive)	27.2 µM (inactive)	23.6 µM (inactive)	46.1 µM (inactive)	28.2 µM (inactive)
O=C(CSCC(=O)N/N=C\c1cccc(Br)c1)N/N=C\c1cccc(Br)c1	14.6 µM (inactive)	20.1 µM (inactive)	15.5 µM (inactive)	18.1 µM (inactive)	13.6 µM (inactive)	18.8 µM (inactive)	27.8 µM (inactive)	19.1 µM (inactive)	17 µM (inactive)	18.2 µM (inactive)	30.3 µM (inactive)	18.5 µM (inactive)	20 µM (inactive)	22.9 µM (inactive)	12.7 µM (inactive)	14.1 µM (inactive)	34 µM (inactive)	20.1 µM (inactive)
CN(C)CCNC(=O)c1nc([N+](=O)[O-])cn1C	> 100 µM (inactive)	> 100 µM (inactive)	> 100 µM (inactive)	> 100 µM (inactive)	> 100 µM (inactive)	> 100 µM (inactive)	> 100 µM (inactive)	> 100 µM (inactive)	> 100 µM (inactive)	> 100 µM (inactive)	> 100 µM (inactive)	> 100 µM (inactive)	> 100 µM (inactive)	> 100 µM (inactive)	> 100 µM (inactive)	> 100 µM (inactive)	> 100 µM (inactive)	> 100 µM (inactive)
CCOC(=O)N/N=C(/N)c1cccc([N+](=O)[O-])c1	> 100 µM (inactive)	> 100 µM (inactive)	> 100 µM (inactive)	> 100 µM (inactive)	> 100 µM (inactive)	> 100 µM (inactive)	> 100 µM (inactive)	> 100 µM (inactive)	> 100 µM (inactive)	> 100 µM (inactive)	> 100 µM (inactive)	> 100 µM (inactive)	> 100 µM (inactive)	> 100 µM (inactive)	> 100 µM (inactive)	> 100 µM (inactive)	> 100 µM (inactive)	> 100 µM (inactive)
O=S(=O)(O)c1cc(S(=O)(=O)O)c2c(/N=N/c3ccc(S(=O)(=O)O)c4ccccc34)c(O)ccc2c1	> 100 µM (inactive)	> 100 µM (inactive)	> 100 µM (inactive)	> 100 µM (inactive)	> 100 µM (inactive)	> 100 µM (inactive)	> 100 µM (inactive)	> 100 µM (inactive)	> 100 µM (inactive)	> 100 µM (inactive)	> 100 µM (inactive)	> 100 µM (inactive)	> 100 µM (inactive)	> 100 µM (inactive)	> 100 µM (inactive)	> 100 µM (inactive)	> 100 µM (inactive)	> 100 µM (inactive)
CC(=O)O[C@H]1C[C@H](O[C@H]2[C@@H](O)C[C@H](O[C@H]3[C@@H](O)C[C@H](O[C@H]4CC[C@@]5(C)[C@H](CC[C@@H]6[C@@H]5CC[C@]5(O)[C@@H](C7=CC(=O)OC7)CC[C@]65O)C4)O[C@@H]3C)O[C@@H]2C)O[C@H](C)[C@H]1O[C@@H]1O[C@H](CO)[C@@H](O)[C@H](O)[C@H]1O	0.137 µM (active)	0.497 µM (active)	0.391 µM (active)	0.553 µM (active)	0.075 µM (active)	1.5 µM (inactive)	0.407 µM (active)	0.258 µM (active)	0.0492 µM (active)	0.337 µM (active)	0.223 µM (active)	0.624 µM (active)	0.841 µM (active)	0.498 µM (active)	2.35 µM (inactive)	0.0581 µM (active)	0.711 µM (active)	0.555 µM (active)
O=C1C=CC(=O)N1c1ccc(I)cc1	23.8 µM (inactive)	20.2 µM (inactive)	18.9 µM (inactive)	25.6 µM (inactive)	17.3 µM (inactive)	18.5 µM (inactive)	7.08 µM (inactive)	7.53 µM (inactive)	18.6 µM (inactive)	6.01 µM (inactive)	2.84 µM (inactive)	16.4 µM (inactive)	16.7 µM (inactive)	20.4 µM (inactive)	23.6 µM (inactive)	22.9 µM (inactive)	6.18 µM (inactive)	16.5 µM (inactive)
